The subject of assay [1] is ATP DAs on ACE microarray (Cy3 ATP DNA Aptamer) (DNA, aptamer) TCACTGACCTGGGGGAGTATTGCGGAGGAAGGT
As to the kind of experiment: surface fluorescence loss (aptamer release), non-equilibrium. The following applies: immobilised ACE microarray; negative control ligand; no induced fit binding.

Assay [2] has as its system 5′Q-5C:12 DA (Cy3 ATP DNA Aptamer with 5′Q-5C:12 ACE) (DNA, aptamer) TCACTGACCTGGGGGAGTATTGCGGAGGAAGGT
As to the kind of experiment: solution FRET (Cy3/BHQ-2) equilibrium titration. The following applies: 300 mM Na+, 5 mM Mg2+; apparent; 25 °C; 200 nM aptamer; quencher ACE 5′Q-5C:12 displaced, Q:F 1:1; n = 1.3.

Assay [3] has as its system 5′Q-5C:11 DA (Cy3 ATP DNA Aptamer with 5′Q-5C:11 ACE) (DNA, aptamer) TCACTGACCTGGGGGAGTATTGCGGAGGAAGGT
As to the kind of experiment: solution FRET (Cy3/BHQ-2) equilibrium titration. As to conditions: 300 mM Na+, 5 mM Mg2+; apparent; 25 °C; 200 nM aptamer; quencher ACE 5′Q-5C:11 displaced, Q:F 1:1; n = 1.2.

Assay [4] deals with 5′Q-5C:10 DA (Cy3 ATP DNA Aptamer with 5′Q-5C:10 ACE) (DNA, aptamer) TCACTGACCTGGGGGAGTATTGCGGAGGAAGGT
As to the kind of experiment: solution FRET (Cy3/BHQ-2) equilibrium titration. As to conditions: 300 mM Na+, 5 mM Mg2+; apparent; 25 °C; 200 nM aptamer; quencher ACE 5′Q-5C:10 displaced, Q:F 1:1; n = 1.0.

Assay [5] relates to 5′Q-5C:9 DA (Cy3 ATP DNA Aptamer with 5′Q-5C:9 ACE) (DNA, aptamer) TCACTGACCTGGGGGAGTATTGCGGAGGAAGGT
Kind of assay: solution FRET (Cy3/BHQ-2) equilibrium titration. The following applies: 300 mM Na+, 5 mM Mg2+; apparent; 25 °C; 200 nM aptamer; quencher ACE 5′Q-5C:9 displaced, Q:F 1:1; n = 0.7.

The subject of assay [6] is 5′Q-2T:9 DA (Cy3 ATP DNA Aptamer with 5′Q-2T:9 ACE) (DNA, aptamer) TCACTGACCTGGGGGAGTATTGCGGAGGAAGGT
As to the kind of experiment: solution FRET (Cy3/BHQ-2) equilibrium titration. The following applies: 300 mM Na+, 5 mM Mg2+; apparent; 25 °C; 200 nM aptamer; quencher ACE 5′Q-2T:9 displaced, Q:F 1:1; n = 1.3.

Here are results for 2 compounds from PMC5408566 (2016).

As for `Nc1nc2c(ncn2[C@@H]2O[C@H](COP(=O)(O)OP(=O)(O)OP(=O)(O)O)[C@@H](O)[C@H]2O)c(=O)[nH]1`, the binding result in assay [1] is on record as “no”.
In the case of `Nc1ncnc2c1ncn2[C@@H]1O[C@H](COP(=O)(O)OP(=O)(O)OP(=O)(O)O)[C@@H](O)[C@H]1O`, the “Kd,Exp Obs” value in assay [2] worked out at 1370 µM; in assay [3], 663 µM; in assay [4], 163 µM; in assay [5] it was 4700 µM; in assay [6] it was 85 µM.
